Entries after “also recorded” stand apart in the source; their conditions may differ.
Columns and labels:
GBM xenograft rat model [1] = test: In vivo GBM rat model: survival; conditions: GBM rats, 30 mg/kg oral gavage once daily for 5 days, 14th to 28th day, compared to untreated GBM rats
Description: (§1) An in Vivo study was performed to assess the therapeutic potential of TR-G002, TR-G045, TR-G053, TR-G066, TR-G071 and TR-G091 in the GBM xenograft rat model when administered orally by gavage for five consecutive days. 152 female rats of the Sprague Dawley strain were allocated to the study. Six groups of sixteen females were given dose of 30 mg/kg of the respective target compounds. […] The study design can be seen in Fig. 11 and Table 10.
(§2) Female Sprague Dawley rats (age: 6-8 weeks; weight: 255-310 g; ATADEM, Erzurum, Turkey) were utilized in the study. Rats underwent anaesthesia with 5% isoflurane, maintained at 2% isoflurane (1 L/min oxygen), and were positioned in a stereotactic frame for cell implantation (Stoelting Co., IL). […] A burr hole was drilled 1-mm anterior and 3-mm lateral to the right bregma. A microsyringe (Hamilton 1700 series) containing 5×10^4 U87-MG cells suspended in 5 µL of medium at 37 °C was advanced to a depth of 4 mm into the brain. The cells were injected at a rate of 3 µL/ min. Bone wax was used to fill the burr hole to prevent cell suspension reflux. The incision was sutured, and 1 mL of Meloxicam (5 mg/mL; Metacam, Boehringer Ingelheim Vetmedica, Ingelheim, Germany) was administered via a subcutaneous injection.
(§3) Fourteen days after inoculation, tumor development in rats was visualized and confirmed through magnetic resonance imaging (MRI). Rats confirmed to have developed tumors were then distributed into six different groups for treatment. […] 9 days after the final treatment dose, the rats underwent another MRI scan and blood and brain samples were taken under anaesthesia.

GBM xenograft rat model [2] = test: In vivo GBM rat model: MRI analysis of tumor volumes; conditions: GBM rats, 30 mg/kg oral, 5 days; for tumor size: MRI 14th vs 28th day; for antitumor activities, order: ranking
Description: as §1, §2, §3
The anaesthetic was administered via an intraperitoneal route on animals fixed in the supine position with parallel hind limbs. MRI was performed using a 3 Tesla clinical scanner (Magnetom Skyra; Siemens Healthineers, Erlangen, Germany). Rats were placed in the prone position. T2-SPACE (sampling perfection with application-optimized contrast using different flip angle Evolution) sequence was obtained to view the brain in coronal and transverse planes. (TR: 6000 ms, TE: 100 ms, voxel size: 0.5 × 0.5 × 1 mm, 34 slices, slice thickness: 2 mm, slice spacing: 0.6 mm). The volume measurements of brain tumors were performed manually. One radiologist calculated the tumour volume - manually measuring tumour length (L), width (W), and height (H) - and then calculated the tumour volume using the formula 0.5236 × L × W × H (Stuppner S et al., 2020).

GBM xenograft rat model [3] = test: In vivo GBM rat model: histopathological examination of brain tissues; conditions: H&E, GBM rats, 30 mg/kg oral, 5 days
Description: as §1, §2, §3
Brain tissue samples were fixed in a 10% buffered formaldehyde solution. After fixation, the tissues were processed through graded alcohol and xylene series and embedded in paraffin blocks. Sections of 5 µm thickness were taken from the paraffin blocks at intervals of 50-100 µm. Hematoxylin and eosin staining was performed on these sections to evaluate histopathological changes. Histopathological findings included tumor focus size, necrotic area, vascular proliferation, and cellular proliferation patterns. Tumor focus size was categorized as follows based on the diameter measured with a 4X objective on the microscope: >3500 µm was considered very severe, 3499-2000 µm severe, 1999-1000 µm moderate, 999-500 µm mild, and <500 µm very mild. Necrotic area size was classified based on the diameter of necrosis: >1500 µm as very severe, 1499-1000 µm severe, 999-500 µm moderate, 499-200 µm mild, and <199 µm very mild.

CMPK2 = test: In vivo GBM rat model: immunohistochemical examination; conditions: tumor cells, brain tissues, GBM rats, 30 mg/kg oral, 5 days
Description: (§4) For immunohistochemical examinations, primary antibodies (Ki67 Cat no: ab15580 dilution ratio: 1/100; CMPK2 Cat no: PA5-34461, dilution ratio: 1/100, GFAP Cat no: ab6842 dilution ratio: 1/100) were used. 3-3' Diaminobenzidine (DAB) was used as chromogen. Mayer's hematoxylin was used for counterstaining. Sections were examined under a light microscope (Zeiss AXIO, Germany).
(§5) Individual body weights were manually calculated. Group mean body weights; group mean body weight changes and organ weights were also manually calculated without statistical analysis. To determine the density of positive staining from immunohistochemical and immunofluorescence staining images, five randomly selected areas were evaluated using ZEISS Zen Imaging Software. Data were statistically defined as mean and standard deviation (mean ± SD) for the percentage of the area. One-way ANOVA followed by the Tukey test was performed to compare immunoreactive cells and immune-positive stained areas with healthy controls. GraphPad Prism software was used for analysis.

GFAP = test: as above; conditions: brain tissues, GBM rats, 30 mg/kg oral, 5 days
Description: as §4, §5

Ki67 = test: as above; conditions: tumor cells, brain tissues, GBM rats, 30 mg/kg oral, 5 days
Description: as §4, §5

H2A.X = test: In vivo GBM rat model: double immunofluorescence examination; conditions: neurons, brain tissues, GBM rats, 30 mg/kg oral, 5 days
Description: (§6) In immunofluorescence examinations, primary antibody (NOP10 Cat no: ab134902 dilution ratio: 1/100) was applied to tissues and incubated according to the instructions. A fluorescent secondary antibody (FITC Cat No: ab6785 dilution Ratio: 1/1000 UK) was then applied and incubated in the dark for 45 minutes. Afterward, a second primary antibody (H2A.X Cat no: sc-517336 dilution ratio: 1/100) was applied and incubated according to the instructions. A different fluorescent secondary antibody (Texas Red Cat No: ab6719 dilution Ratio: 1/1000 UK) was applied and incubated in the dark for 45 minutes. Finally, DAPI (Cat no: D1306 dilution ratio: 1/200 UK) was applied to the sections for 5 minutes in the dark, followed by covering the tissues with coverslips. The stained tissues were examined under a fluorescence attachment-equipped microscope (Zeiss AXIO, Germany).
as §5

NOP10 = test: as above; conditions: neurons, brain tissues, GBM rats, 30 mg/kg oral, 5 days
Description: as §6, §5

[4] = Peripheral blood micronucleus assay; assay type: in vivo, Rat; conditions: for MN frequency: GBM rats, 30 mg/kg oral, 5 days, 1000 cells per animal evaluated
Description: Blood smears were made on clean microscope slides, allowed to air-dry, treated with methanol for fixation, and then stained with Giemsa (10% in 0.1 mM of sodium phosphate buffer, pH 6.8) for 10 min. After washing with PBS, the slides were examined under a light microscope. The frequencies of micronuclei (MN) were calculated by evaluating 1000 cells per animal.

Row | SMILES | survival (GBM xenograft rat model [1]; 30 mg/kg) | tumor size (GBM xenograft rat model [2]) | antitumor activities, order (GBM xenograft rat model [2]) | cellular proliferation / mitosis (GBM xenograft rat model [3]) | tumor focus (description) (GBM xenograft rat model [3]) | vascular proliferation (GBM xenograft rat model [3]) | expression of CMPK2 (CMPK2) | GFAP expression in astrocytes around the tumor (GFAP) | expression of Ki67 (Ki67) | expressions of H2AX (H2A.X) | expressions of Nopio (NOP10) | MN frequency [4] | necrotic cells (description) (GBM xenograft rat model [3]) | tumor focus size (grade) (GBM xenograft rat model [3]) | survival (GBM xenograft rat model [1]) | necrosis (grade) (GBM xenograft rat model [3]) | MN frequency (comparison) ([4]; treated GBM rats) | tumor size (GBM xenograft rat model [2]; 30 mg/kg)
1 | CC(C)CCOc1ccc2c(c1)CCC(=O)N2 [TR-G002, 6-(isopentyloxy)-3,4-dihydroquinolin-2(1H)-one] | significantly improved survival; also recorded: prolonged survival | small increase in tumor size | TR-G066> TR-G045> TR-G002>TMZ> TR-G091> TR-G053> TR-G071 | mild | significantly reduced tumor focus | mild | mild | severe | mild | mild | mild | 11.62 ± 2.34 |  |  |  |  |  | 
2 | O=C1CCc2cc(OS(=O)(=O)c3cccc4ccccc34)ccc2N1 [TR-G045, 2-oxo-1,2,3,4-tetrahydroquinolin-6-yl naphthalene-1-sulfonate] | significantly improved survival; also recorded: prolonged survival | decrease in tumor size | TR-G066> TR-G045> TR-G002>TMZ> TR-G091> TR-G053> TR-G071 | moderate mitosis |  | vascular proliferation in the vicinity of healthy tissue | moderate | moderate | moderate | moderate | moderate | 12.05 ± 1.78 | Necrotic cells were present in the central regions | moderate (1999-1000 µm moderate) |  |  |  | 
3 | C=Cc1ccc(COc2ccc3c(c2)CCC(=O)N3)cc1 [TR-G053, 6-((4-vinylbenzyl)oxy)-3,4-dihydroquinolin-2(1H)-one] |  |  | TR-G066> TR-G045> TR-G002>TMZ> TR-G091> TR-G053> TR-G071 | intense mitosis around blood vessels | tumor focus including both grey and white matter |  | severe | mild | severe | severe | severe | 9.67 ± 1.21 |  |  | prolonged survival | Severe | lowest MN frequency | 
4 | O=C(COc1ccc2c(c1)CCC(=O)N2)N/N=C/c1cnc(-c2ccc(Cl)cc2)nc1 [TR-G066, (E)-N'-((2-(4-chlorophenyl)pyrimidin-5-yl)methylene)-2-((2-oxo-1,2,3,4-tetrahydroquinolin-6-yl)oxy)acetohydrazide] | significantly improved survival; also recorded: highest survival; also recorded: prolonged survival |  | TR-G066> TR-G045> TR-G002>TMZ> TR-G091> TR-G053> TR-G071 |  | few tumor cells, particularly around blood vessels, rather than a distinct tumor focus shape |  | very mild | very severe | very mild | very mild | very mild | 10.91 ± 1.89 |  |  |  |  |  | decrease in tumor size; also recorded: reduced the tumor size
5 | C=CCOC(=O)COc1ccc2c(c1)CCC(=O)N2 [TR-G071, Allyl 2-((2-oxo-1,2,3,4-tetrahydroquinolin-6-yl)oxy)acetate] |  |  | TR-G066> TR-G045> TR-G002>TMZ> TR-G091> TR-G053> TR-G071 | moderate levels of mitosis | expanded tumor focus | moderate | moderate | moderate | moderate | moderate | moderate | 12.43 ± 2.09 |  |  | prolonged survival | moderate (999-500 µm moderate) |  | 
6 | COc1cc(NC(=O)COc2ccc3c(c2)CCC(=O)N3)cc(OC)c1 [TR-G091, N-(3,5-dimethoxyphenyl)-2-((2-oxo-1,2,3,4-tetrahydroquinolin-6-yl)oxy)acetamide] |  |  | TR-G066> TR-G045> TR-G002>TMZ> TR-G091> TR-G053> TR-G071 |  | extended tumor focus encompassing both grey and white matter |  | moderate | Moderate | moderate | moderate | moderate | 11.65 ± 2.30 |  |  | prolonged survival | Moderate |  | 

Source: patent publication EP4644375A1, “SUBSTITUTED HYDROQUINOLINES FOR THE TREATMENT OF GLIOBLASTOMA MULTIFORME” (Molius Saglik Teknolojileri Anonim Sirketi, priority 2024, dated 2025)
